Data reported in ChEMBL document CHEMBL1201862, “PubChem BioAssay data set” (2004).
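Briefly, cells in 96-well plates were exposed to five compound concentrations for 48 h, and endpoints were estimated by linear interpolation. GI50 = concentration required for 50% inhibition of growth.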 The source made the active and inactive calls. Cut-off read from the data, not from the text of the source: active = GI50 up to about 1.1 µM and inactive = higher.

Tests used:
Test in all cases: NCI tumour cell line growth inhibition, 48 h
ACHN = system: ACHN
SK-MEL-2 = system: SK-MEL-2
M14 = system: M14
SR = system: SR
SF-539 = system: SF-539
UACC-62 = system: UACC-62
SK-MEL-28 = system: SK-MEL-28
SF-295 = system: SF-295
HT-29 = system: HT-29
PC-3 = system: PC-3
A498 = system: A498
Hs-578T = system: Hs-578T
HCT-116 = system: HCT-116
T47D = system: T47D
786-0 = system: 786-0
NCI-H226 = system: NCI-H226
RXF 393 = system: RXF 393
CAKI-1 = system: CAKI-1
NCI/ADR-RES = system: NCI/ADR-RES

Measured: GI50

O=C1CC2C(=O)c3ccccc3CC2c2ccccc21 (stereo unspecified)
inactive: ACHN 30.7 µM | SK-MEL-2 87.1 µM | M14 69.5 µM | SR 13.8 µM | SF-539 32.7 µM | UACC-62 35.7 µM | SK-MEL-28 70.6 µM | SF-295 49.2 µM | HT-29 44.9 µM | PC-3 43 µM | A498 48.8 µM | Hs-578T > 100 µM | HCT-116 38.6 µM | T47D 49.2 µM | 786-0 92.3 µM | NCI-H226 36.6 µM

CCC(C)(O)c1cnc(CC(C)C)c(=O)n1O (stereo unspecified)
inactive: ACHN 59.7 µM | SK-MEL-2 57.3 µM | SR 17.2 µM | RXF 393 > 100 µM | UACC-62 68.2 µM | SK-MEL-28 63.5 µM | SF-295 36.6 µM | HT-29 38.5 µM | PC-3 48.3 µM | A498 > 100 µM | Hs-578T 80.7 µM | HCT-116 44.9 µM | CAKI-1 43.8 µM | T47D 59.4 µM | 786-0 57.7 µM

NC1=C(N2CCCCC2)C(=O)NC2=N/C(=C\c3ccco3)C(=O)N21
inactive: ACHN > 100 µM | M14 > 100 µM | SR 88.3 µM | RXF 393 > 100 µM | SF-539 > 100 µM | SK-MEL-28 > 100 µM | NCI/ADR-RES > 100 µM | SF-295 > 100 µM | HT-29 > 100 µM | A498 > 100 µM | Hs-578T > 100 µM | HCT-116 > 100 µM | CAKI-1 > 100 µM | T47D > 100 µM | 786-0 > 100 µM | NCI-H226 > 100 µM

CCNC(=O)C1CCCN1C(=O)C(CCCN=C(N)N)NC(=O)C(CC(C)C)NC(=O)C(Cc1c[nH]c2ccccc12)NC(=O)C(Cc1ccc(O)cc1)NC(=O)C(CO)NC(=O)C(Cc1c[nH]c2ccccc12)NC(=O)C(Cc1c[nH]cn1)NC(=O)C1CCC(=O)N1 (stereo unspecified)
inactive: ACHN > 100 µM | SK-MEL-2 > 100 µM | M14 > 100 µM | SR > 100 µM | RXF 393 > 100 µM | SF-539 > 100 µM | UACC-62 > 100 µM | NCI/ADR-RES > 100 µM | SF-295 > 100 µM | HT-29 > 100 µM | PC-3 > 100 µM | A498 > 100 µM | Hs-578T > 100 µM | CAKI-1 > 100 µM | 786-0 > 100 µM | NCI-H226 > 100 µM

O=C(CC(C(=O)c1ccsc1)c1ccccc1)c1ccccc1 (stereo unspecified)
inactive: ACHN > 100 µM | M14 > 100 µM | SR > 100 µM | RXF 393 > 100 µM | SF-539 > 100 µM | UACC-62 71.1 µM | SK-MEL-28 7.28 µM | NCI/ADR-RES 18.7 µM | SF-295 76.9 µM | HT-29 > 100 µM | A498 25.8 µM | Hs-578T > 100 µM | HCT-116 75 µM | CAKI-1 > 100 µM | T47D 20.2 µM | 786-0 > 100 µM | NCI-H226 74.1 µM

Cc1ccc(S(=O)(=O)N2CCCSCCN(S(=O)(=O)c3ccc(C)cc3)CCCSCC2)cc1
inactive: ACHN > 100 µM | SK-MEL-2 > 100 µM | M14 > 100 µM | RXF 393 > 100 µM | SF-539 > 100 µM | UACC-62 > 100 µM | SK-MEL-28 > 100 µM | NCI/ADR-RES > 100 µM | SF-295 > 100 µM | HT-29 > 100 µM | A498 > 100 µM | Hs-578T > 100 µM | HCT-116 > 100 µM | T47D 17.5 µM | 786-0 > 100 µM | NCI-H226 > 100 µM

O=C(/C=C/c1ccccc1)CCc1c(O)c2ccccc2oc1=O
inactive: ACHN > 100 µM | SK-MEL-2 71.9 µM | M14 > 100 µM | SF-539 > 100 µM | UACC-62 71 µM | SK-MEL-28 > 100 µM | NCI/ADR-RES > 100 µM | SF-295 > 100 µM | HT-29 > 100 µM | PC-3 43.9 µM | A498 74.5 µM | Hs-578T > 100 µM | HCT-116 35.7 µM | CAKI-1 > 100 µM | T47D > 100 µM | 786-0 > 100 µM | NCI-H226 > 100 µM

CC(C)=C1C(=O)c2c(Cl)sc(Cl)c2C1=O
inactive: ACHN 21 µM | SK-MEL-2 20 µM | M14 19 µM | SR 27.2 µM | SF-539 22.3 µM | UACC-62 19.9 µM | SK-MEL-28 21.7 µM | NCI/ADR-RES 24 µM | SF-295 39.5 µM | HT-29 28.8 µM | A498 > 100 µM | Hs-578T 32.8 µM | HCT-116 17.2 µM | CAKI-1 18.3 µM | T47D 31 µM | 786-0 22.9 µM | NCI-H226 35.6 µM

CS(=O)(=O)c1ccc(/C=N/NC(N)=S)cc1
inactive: ACHN > 100 µM | M14 > 100 µM | RXF 393 > 100 µM | UACC-62 > 100 µM | SK-MEL-28 > 100 µM | NCI/ADR-RES > 100 µM | SF-295 > 100 µM | HT-29 > 100 µM | PC-3 > 100 µM | A498 > 100 µM | Hs-578T > 100 µM | HCT-116 > 100 µM | CAKI-1 > 100 µM | T47D > 100 µM | 786-0 > 100 µM | NCI-H226 > 100 µM

C=C[C@@H]1C[C@]2(C(=O)OC)Cc3nc4ccccc4nc3CC(C(=O)OC)=C2O1
inactive: ACHN > 100 µM | SK-MEL-2 > 100 µM | M14 80.7 µM | RXF 393 > 100 µM | SF-539 > 100 µM | UACC-62 > 100 µM | SK-MEL-28 53.8 µM | NCI/ADR-RES > 100 µM | SF-295 93.5 µM | HT-29 > 100 µM | PC-3 62.4 µM | A498 > 100 µM | Hs-578T > 100 µM | HCT-116 > 100 µM | CAKI-1 > 100 µM | T47D 85.5 µM | 786-0 > 100 µM

O=C(/C=C1\N=C(c2ccccc2)N(c2nc3c(Cl)cc(Cl)cc3s2)C1=O)/C=C/c1ccccc1
inactive: ACHN > 100 µM | SK-MEL-2 > 100 µM | M14 > 100 µM | RXF 393 63.1 µM | UACC-62 54.7 µM | SK-MEL-28 > 100 µM | NCI/ADR-RES 83.4 µM | SF-295 > 100 µM | HT-29 > 100 µM | PC-3 69.3 µM | A498 67.5 µM | Hs-578T > 100 µM | HCT-116 97.5 µM | CAKI-1 > 100 µM | T47D 24.9 µM | 786-0 > 100 µM

CC1CCCN(CP(=O)(c2ccccc2)c2ccccc2)C1 (stereo unspecified)
inactive: ACHN > 100 µM | SK-MEL-2 > 100 µM | M14 > 100 µM | SR > 100 µM | RXF 393 > 100 µM | SF-539 > 100 µM | UACC-62 > 100 µM | SK-MEL-28 > 100 µM | NCI/ADR-RES > 100 µM | SF-295 > 100 µM | PC-3 > 100 µM | A498 > 100 µM | Hs-578T > 100 µM | HCT-116 93.8 µM | CAKI-1 > 100 µM | 786-0 > 100 µM | NCI-H226 > 100 µM
